“And” between values parts separate entries of the source, which are not always exact repeats. Identical values can stand only once. The source made the active and inactive calls.
Columns and labels:
[1] = Luminescence Cell-Based Dose Retest to Confirm Inhibitors of Cancer Stem Cells. [Related pubchem assays (depositor defined):AID2717, AID2721]; format: functional; details: Homo sapiens
[2] = biological target: Cytochrome P450 3A4 (Homo sapiens, UniProt P08684);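 further: CYP3A4 tested as one member of a cytochrome P450 panel screen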
[3] = biological target: Cytochrome P450 2C19 (Homo sapiens, UniProt P33261); test: Cytochrome panel assay with activity outcomes. Panel member name: p450-cyp2c19 Compounds with AC50 equal or less than 10 uM are considered active; format: functional; details: read-out: AC50
[4] = biological target: T1, Cytochrome P450 1A2 (Homo sapiens, UniProt P05177);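 further: PubChem cytochrome P450 panel assay, CYP1A2 panel member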
T1 sequence (P05177 whole entry): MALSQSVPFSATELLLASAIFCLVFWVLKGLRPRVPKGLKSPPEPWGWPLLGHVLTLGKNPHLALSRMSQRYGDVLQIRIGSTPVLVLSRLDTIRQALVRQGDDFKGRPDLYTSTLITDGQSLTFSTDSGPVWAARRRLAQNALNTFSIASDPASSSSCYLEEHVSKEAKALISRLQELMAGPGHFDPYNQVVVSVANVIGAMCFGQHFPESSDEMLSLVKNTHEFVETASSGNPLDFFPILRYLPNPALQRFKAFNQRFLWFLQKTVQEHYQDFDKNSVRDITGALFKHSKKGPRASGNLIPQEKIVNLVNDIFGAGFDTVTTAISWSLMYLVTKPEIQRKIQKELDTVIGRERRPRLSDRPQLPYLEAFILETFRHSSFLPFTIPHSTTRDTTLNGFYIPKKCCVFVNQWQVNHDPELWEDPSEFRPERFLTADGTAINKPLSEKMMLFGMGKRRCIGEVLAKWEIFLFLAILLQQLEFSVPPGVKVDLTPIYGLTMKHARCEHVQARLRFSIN

[5] = biological target: Cytochrome P450 2C9 (Homo sapiens, UniProt P11712)
[6] = biological target: T2, Rac GTPase-activating protein 1 (Homo sapiens, UniProt Q9H0H5); test: blockers of MgcRacGAP-driven Rac1 GTP hydrolysis – biochemical, ADP Hunter fluorescence, primary and confirmatory, confirmation (AID 624330); format: functional
T2 sequence (Q9H0H5 whole entry): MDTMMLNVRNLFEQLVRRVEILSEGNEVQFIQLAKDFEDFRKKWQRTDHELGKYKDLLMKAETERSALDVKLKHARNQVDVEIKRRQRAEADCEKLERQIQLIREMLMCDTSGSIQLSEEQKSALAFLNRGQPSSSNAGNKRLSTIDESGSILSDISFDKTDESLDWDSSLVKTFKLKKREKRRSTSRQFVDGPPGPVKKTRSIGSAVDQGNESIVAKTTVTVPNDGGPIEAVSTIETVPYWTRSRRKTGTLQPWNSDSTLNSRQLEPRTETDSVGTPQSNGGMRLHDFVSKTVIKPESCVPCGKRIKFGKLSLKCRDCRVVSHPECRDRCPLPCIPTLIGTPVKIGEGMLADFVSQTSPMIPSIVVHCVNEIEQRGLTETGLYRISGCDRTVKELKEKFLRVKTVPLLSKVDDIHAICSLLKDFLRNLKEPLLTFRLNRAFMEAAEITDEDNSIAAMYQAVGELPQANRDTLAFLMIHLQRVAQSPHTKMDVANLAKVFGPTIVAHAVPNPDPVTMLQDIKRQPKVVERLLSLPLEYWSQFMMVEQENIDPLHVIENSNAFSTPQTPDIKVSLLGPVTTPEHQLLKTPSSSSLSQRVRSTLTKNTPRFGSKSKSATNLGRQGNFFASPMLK

[7] = fluconazole-exposed Candida albicans growth modulators – fluorescence, retest, confirmation (AID 2467); format: functional, cell-based
[8] = NIH-3T3 fibroblast cytotoxicity, dose response, cytotoxicity control, cell-based, fluorescence, Alamar Blue, secondary assay (AID 2327); format: functional;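 further: NIH-3T3 mouse fibroblasts cultured with fluconazole at 8 µg/mL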
[9] = biological target: T3, Replicative DNA helicase DnaB (Mycobacterium tuberculosis, UniProt P9WMR3); test: DnaB intein splicing inhibitors, dose response, biochemical, cell-free fluorescence (AID 449749); format: functional
T3 sequence (P9WMR3 whole entry): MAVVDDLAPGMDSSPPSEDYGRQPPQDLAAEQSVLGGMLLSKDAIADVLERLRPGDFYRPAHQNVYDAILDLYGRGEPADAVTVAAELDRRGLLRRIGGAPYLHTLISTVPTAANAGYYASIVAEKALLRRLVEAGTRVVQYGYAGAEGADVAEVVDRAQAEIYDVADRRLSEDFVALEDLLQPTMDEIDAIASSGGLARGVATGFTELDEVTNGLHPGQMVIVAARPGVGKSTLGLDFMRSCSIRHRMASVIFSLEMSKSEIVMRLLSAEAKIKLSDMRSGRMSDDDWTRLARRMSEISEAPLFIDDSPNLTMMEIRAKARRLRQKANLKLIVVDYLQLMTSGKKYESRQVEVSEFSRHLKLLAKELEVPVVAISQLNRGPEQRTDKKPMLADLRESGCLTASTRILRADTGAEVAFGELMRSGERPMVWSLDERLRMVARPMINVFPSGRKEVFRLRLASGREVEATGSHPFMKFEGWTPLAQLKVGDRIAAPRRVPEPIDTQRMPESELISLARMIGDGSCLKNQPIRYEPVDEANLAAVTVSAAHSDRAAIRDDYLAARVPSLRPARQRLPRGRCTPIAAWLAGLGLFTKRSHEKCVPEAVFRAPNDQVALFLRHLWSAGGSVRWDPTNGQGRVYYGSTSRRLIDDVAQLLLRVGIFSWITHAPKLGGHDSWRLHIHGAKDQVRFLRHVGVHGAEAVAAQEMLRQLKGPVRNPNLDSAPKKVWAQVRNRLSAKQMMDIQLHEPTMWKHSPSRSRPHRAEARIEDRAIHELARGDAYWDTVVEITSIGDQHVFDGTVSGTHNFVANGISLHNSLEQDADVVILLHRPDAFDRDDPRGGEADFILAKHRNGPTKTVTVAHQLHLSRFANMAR

[10] = biological target: T4, Protein RecA (Mycobacterium tuberculosis, UniProt P9WHJ3); test: Fluorescence Cell-Free Homogeneous Dose Retest to Identify Inhibitors of RecA-Intein Splicing Activity. [Related pubchem assays (depositor defined):AID2097, AID2223, AID489010, AID492950]; format: functional
T4 sequence (P9WHJ3 whole entry): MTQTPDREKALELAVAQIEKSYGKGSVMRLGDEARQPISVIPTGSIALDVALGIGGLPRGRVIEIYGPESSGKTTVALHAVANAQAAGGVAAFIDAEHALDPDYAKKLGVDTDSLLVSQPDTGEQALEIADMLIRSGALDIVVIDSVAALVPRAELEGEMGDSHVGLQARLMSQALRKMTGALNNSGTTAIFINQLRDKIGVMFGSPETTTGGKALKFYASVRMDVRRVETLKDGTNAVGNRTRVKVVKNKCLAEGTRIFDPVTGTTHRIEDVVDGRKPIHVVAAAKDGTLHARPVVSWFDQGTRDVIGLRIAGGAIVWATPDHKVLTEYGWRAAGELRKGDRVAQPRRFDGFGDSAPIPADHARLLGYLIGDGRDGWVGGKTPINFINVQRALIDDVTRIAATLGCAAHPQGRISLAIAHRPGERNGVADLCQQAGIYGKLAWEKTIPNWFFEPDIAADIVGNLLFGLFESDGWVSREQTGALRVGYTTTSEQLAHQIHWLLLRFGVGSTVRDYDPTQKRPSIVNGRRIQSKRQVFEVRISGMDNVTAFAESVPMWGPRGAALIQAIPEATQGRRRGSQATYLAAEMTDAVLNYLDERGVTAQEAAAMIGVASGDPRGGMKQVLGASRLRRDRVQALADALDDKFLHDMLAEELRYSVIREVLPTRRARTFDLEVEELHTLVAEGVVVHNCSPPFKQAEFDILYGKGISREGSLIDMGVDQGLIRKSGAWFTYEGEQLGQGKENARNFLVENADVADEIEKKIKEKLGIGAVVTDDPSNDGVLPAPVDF

[11] = non-specific 3'UTR reporter inhibition in Clone20-Shn3RL – cell-based, Renilla luciferase, cherry-picked, counter-screen for Shn3 inhibitor project, dose response (AID 624133); format: functional
[12] = loss of viability in HepG2 cells – cell-based, CellTiter-Glo, cherry-picked, cytotoxicity control for Shn3 inhibitor project, dose response (AID 624134); format: functional
[13] = reduction of Shn3 3'UTR-driven luciferase in osteoblasts – cell-based, Clone20 osteoblasts, firefly luciferase, cherry-picked, dose response (AID 624132); format: functional;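 further: firefly luciferase luminescence from reporter carrying the Shn3 3'UTR in osteoblasts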

Chain of Cytochrome P450 2C19 (P33261 whole entry): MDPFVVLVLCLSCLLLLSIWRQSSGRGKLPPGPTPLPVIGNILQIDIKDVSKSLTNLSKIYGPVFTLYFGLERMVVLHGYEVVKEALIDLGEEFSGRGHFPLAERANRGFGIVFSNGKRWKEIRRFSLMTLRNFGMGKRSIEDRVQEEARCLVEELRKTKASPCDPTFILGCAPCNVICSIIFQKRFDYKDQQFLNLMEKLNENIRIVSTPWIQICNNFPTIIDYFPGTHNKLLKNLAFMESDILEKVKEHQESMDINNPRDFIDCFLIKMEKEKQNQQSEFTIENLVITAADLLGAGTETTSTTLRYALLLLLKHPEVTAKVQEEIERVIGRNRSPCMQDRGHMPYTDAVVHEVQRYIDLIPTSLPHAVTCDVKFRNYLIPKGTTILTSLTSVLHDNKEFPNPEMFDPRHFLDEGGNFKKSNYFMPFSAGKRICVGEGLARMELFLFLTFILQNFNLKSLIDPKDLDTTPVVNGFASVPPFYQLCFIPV
Chain of Cytochrome P450 2C9 (P11712 whole entry): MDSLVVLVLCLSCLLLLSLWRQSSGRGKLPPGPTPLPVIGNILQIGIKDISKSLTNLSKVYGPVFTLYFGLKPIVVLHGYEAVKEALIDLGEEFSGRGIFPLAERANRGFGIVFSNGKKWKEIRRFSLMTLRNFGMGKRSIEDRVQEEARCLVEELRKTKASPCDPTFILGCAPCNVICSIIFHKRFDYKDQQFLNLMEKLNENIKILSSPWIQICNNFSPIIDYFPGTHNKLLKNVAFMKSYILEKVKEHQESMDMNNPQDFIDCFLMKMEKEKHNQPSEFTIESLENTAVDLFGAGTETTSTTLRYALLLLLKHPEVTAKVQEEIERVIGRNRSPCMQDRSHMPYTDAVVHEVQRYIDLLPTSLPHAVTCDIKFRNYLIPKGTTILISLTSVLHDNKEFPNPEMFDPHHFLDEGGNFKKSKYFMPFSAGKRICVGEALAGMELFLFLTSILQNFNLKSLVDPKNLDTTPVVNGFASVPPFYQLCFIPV
Chain of Cytochrome P450 3A4 (P08684 whole entry): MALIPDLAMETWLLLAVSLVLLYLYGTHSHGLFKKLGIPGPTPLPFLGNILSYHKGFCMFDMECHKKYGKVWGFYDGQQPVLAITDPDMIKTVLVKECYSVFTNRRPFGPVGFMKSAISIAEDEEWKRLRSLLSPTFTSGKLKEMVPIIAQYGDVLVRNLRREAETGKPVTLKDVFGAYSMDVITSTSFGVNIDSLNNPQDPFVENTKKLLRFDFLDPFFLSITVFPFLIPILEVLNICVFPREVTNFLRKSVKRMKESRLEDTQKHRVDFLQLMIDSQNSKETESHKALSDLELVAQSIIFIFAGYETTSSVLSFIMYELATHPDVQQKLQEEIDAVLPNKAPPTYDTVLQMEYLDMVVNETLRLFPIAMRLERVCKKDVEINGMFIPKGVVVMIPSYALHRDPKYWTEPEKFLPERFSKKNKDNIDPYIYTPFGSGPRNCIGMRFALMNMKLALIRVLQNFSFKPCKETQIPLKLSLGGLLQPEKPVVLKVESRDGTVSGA

CC(C)(C)OC(=O)N1CCC(NC(=O)c2[nH]cnc2C(=O)Nc2ccc(Cl)cc2)CC1
AC50 [1]: 4.79 µM (active)

COc1ccc(Oc2ncc3nc(CCc4ccccc4)c(=O)n(C4CC4)c3n2)cc1
AC50 [2]: 5.01 µM (inconclusive)

Clc1ccccc1-c1ccc2ncnc(N3CCNCC3)c2c1
AC50 [2]: 25.1 µM (inconclusive) | AC50 [3]: 31.6 µM (inconclusive)

Cc1nnc(SCC(=O)NCC2CCCCC2)n(N)c1=O
AC50 [2]: 25.1 µM (inconclusive) | AC50 [4]: 25.1 µM (inconclusive)

C/C(NNc1ccccc1)=C1/C(=O)NC(=O)N(c2ccccc2)C1=O
AC50 [1]: 1.05 µM (active)

Cc1ccc(C2C(C(=O)c3ccccc3)=C(O)C(=O)N2CCN2CCOCC2)o1 (configuration not stated)
AC50 [2]: 25.1 µM (inconclusive) | AC50 [3]: 14.1 µM (inconclusive) | AC50 [5]: 7.08 µM (inconclusive)

O=[N+]([O-])c1ccc(N2CCN(CCOCCO)CC2)c([N+](=O)[O-])c1
IC50 [6]: 204 µM (active)

COc1ccc(CN2CCC(C(N)=O)CC2)cc1OCc1ccccc1
IC50 [6]: 204 µM (active)

O=C(c1ccncc1)N1CCC2(CC1)CN(c1ccc(-c3ccccc3)cc1)C2
AC50 [2]: 2.51 µM (inconclusive) | AC50 [3]: 2.51 µM (inconclusive)

Cc1cc(CSc2ccccc2)ccc1NC(=O)COc1ccccc1
AC50 [2]: 12.6 µM (inconclusive) | AC50 [3]: 2.24 µM (inconclusive) | AC50 [4]: 7.08 µM (inconclusive)

CC[C@H]1CC[C@H]2[C@@H]3CC=C4C[C@H](OC(C)=O)[C@@H](N)C[C@@]4(C)[C@H]3CC[C@@]12C
AC50 [2]: 2.51 µM (inconclusive)

COc1ccc(-n2c(=O)c(C)nc3cnc(N4CCNCC4)nc32)cc1
AC50 [2]: 25.1 µM (inconclusive)

O=C(CN1CCN(Cc2ccccc2)CC1)N1CCCc2c1c(=O)oc1ccc(O)cc21
AC50 [2]: 3.98 µM (inconclusive) | AC50 [4]: 6.31 µM (inconclusive)

O=C(c1ccoc1)N1CCC2(CC1)Oc1ccc(F)cc1C(=O)C21CC(c2ccccc2)=NO1 (configuration not stated)
EC50 [7]: 1.18 µM (active) | EC50 [8]: > 150 µM (inconclusive)

COc1ccccc1CNCC(=O)Nc1ccccc1-n1cccc1
IC50 [6]: 179 µM (active)

CCOC(=O)C1=C(N)Oc2cc(O)ccc2C1c1cccc(Cl)c1 (configuration not stated)
AC50 [1]: 1.77 µM (active)

COc1ccc(C(=O)N2CCC3(CCN(Cc4cc(C(F)(F)F)cc(C(F)(F)F)c4)CC3)CC2)cc1
AC50 [2]: 25.1 µM (inconclusive)

Nc1ccc2[nH]c(Cc3ccccc3)nc2c1
IC50 [6]: 76.2 µM (active) | AC50 [9]: > 380 µM (inactive) | EC50 [10]: 55.9 µM (active)

COC(=O)C/C=C\[C@@H](C)[C@@H](/C=N\O[C@@H](C)c1cc(-c2c(C)cc(C)cc2C)no1)OC
AC50 [3]: 2.51 µM (inconclusive) | AC50 [5]: 3.16 µM (inconclusive)

COc1ccc(OCCn2ccnc2C)cc1
IC50 [6]: 136 µM (active)

CC(C)NC(=O)c1ccccc1NC(=O)/C=C/c1ccc([N+](=O)[O-])cc1
AC50 [2]: 35.5 µM (inconclusive) | AC50 [5]: 2 µM (inconclusive)

COc1ccc(-c2sc3ccccc3c2C#CCCO)cc1
AC50 [1]: 4.81 µM (active)

CCOc1ccc(OCC(=O)N(CCC2=CCCCC2)c2c(N)n(Cc3ccccc3)c(=O)[nH]c2=O)cc1
AC50 [11]: 25.1 µM (active) | AC50 [1]: 3.6 µM (active) | AC50 [12]: 27.3 µM (active) | AC50 [13]: 8.66 µM (active)

COc1cc(/C=C(/C#N)c2nc3ccccc3[nH]2)ccc1OCC(=O)Nc1ccccc1C
AC50 [1]: 0.865 µM (active)

COc1ccc2sc(-c3ccc(SC)cc3)c(-c3ccc(O)cc3)c2c1
AC50 [1]: 2.61 µM (active)

COC(=O)c1ccccc1NC(=O)CSc1nnc(C(CO)NC(=O)c2ccccc2Cl)n1C (configuration not stated)
AC50 [2]: 22.4 µM (inconclusive)

CN(C)CCCC1Sc2ccccc2Sc2ccccc21 (configuration not stated)
IC50 [6]: 210 µM (active)

COc1ccc(CCNC(=O)Cn2c(=O)oc3ccccc32)cc1OC
AC50 [2]: 22.4 µM (inconclusive) | AC50 [4]: 12.6 µM (inconclusive) | AC50 [5]: 2.51 µM (inconclusive)

O=C(NNC(=O)c1ccccc1-n1cccc1)c1ccccc1
AC50 [3]: 11.2 µM (inconclusive) | AC50 [5]: 35.5 µM (inconclusive)

COc1cccc(OC)c1C(=O)Nc1cc(C)on1
AC50 [2]: 20 µM (inconclusive) | AC50 [3]: 39.8 µM (inconclusive) | AC50 [4]: 22.4 µM (inconclusive)

CC1CCN(S(=O)(=O)c2ccc3c(c2)C(Cl)(Cl)C(=O)N3)CC1
IC50 [6]: 60.3 µM (active)

Cc1cccc(NC(=S)N/N=C(\c2ccccc2)C(C)C)c1
EC50 [7]: 3.98 µM (active) | EC50 [8]: > 150 µM (inconclusive)

COc1cc(/C=N\NC(=O)CNC(=O)C2COc3ccccc3O2)ccc1O (configuration not stated)
IC50 [6]: 29 µM (active)

O=c1cc(N2CCOCC2)oc2c(-c3ccccc3)cccc12 [LY-294002]
AC50 [2]: 10 µM (inconclusive) and 5.01 µM (inconclusive)

O=C1C(CC[S+]([O-])c2ccccc2)C(=O)N(c2ccccc2)N1c1ccccc1 (configuration not stated) [SULFINPYRAZONE]
AC50 [5]: 10 µM (inconclusive)
